This note sets out measurements from patent US20110160167A1, “Steroid Derivatives Acting As Glucocorticosteroid Receptor Agonists” (AstraZeneca AB, priority 2007, published 2011).

One may read the IC50 as the concentration needed to halve the response being measured.

Molecules are shown by their SMILES.

For the experiment, the target named is T1, recombinant human GR (Homo sapiens, UniProt P04150).
T1 construct: purchased Panvera/Invitrogen P2812 (kit P2893)
T1 sequence (P04150 1-777): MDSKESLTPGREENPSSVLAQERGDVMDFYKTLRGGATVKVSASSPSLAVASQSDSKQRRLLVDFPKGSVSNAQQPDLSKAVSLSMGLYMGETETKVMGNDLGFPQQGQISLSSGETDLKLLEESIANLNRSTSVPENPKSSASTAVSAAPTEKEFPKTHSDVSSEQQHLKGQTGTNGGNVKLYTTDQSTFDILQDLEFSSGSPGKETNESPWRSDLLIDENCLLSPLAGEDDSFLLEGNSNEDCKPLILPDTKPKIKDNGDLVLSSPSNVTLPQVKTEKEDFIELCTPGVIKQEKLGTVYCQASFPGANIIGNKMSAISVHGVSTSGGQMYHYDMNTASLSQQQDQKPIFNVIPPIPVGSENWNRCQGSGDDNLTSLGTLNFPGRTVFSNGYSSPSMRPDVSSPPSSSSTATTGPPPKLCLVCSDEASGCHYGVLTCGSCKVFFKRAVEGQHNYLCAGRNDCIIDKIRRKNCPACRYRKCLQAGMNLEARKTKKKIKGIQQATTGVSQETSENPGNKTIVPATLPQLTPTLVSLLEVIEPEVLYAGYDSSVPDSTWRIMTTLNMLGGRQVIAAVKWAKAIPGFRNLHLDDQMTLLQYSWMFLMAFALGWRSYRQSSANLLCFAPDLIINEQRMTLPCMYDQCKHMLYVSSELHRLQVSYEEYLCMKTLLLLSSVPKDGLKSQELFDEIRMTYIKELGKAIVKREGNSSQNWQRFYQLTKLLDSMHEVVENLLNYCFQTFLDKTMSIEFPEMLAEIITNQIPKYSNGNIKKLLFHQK
Nature of the experiment: Human Glucocorticoid Receptor (GR) Assay (fluorescence polarization, Panvera/Invitrogen kit). Conditions: GS Red tracer, 2 hours at room temperature, 100% control 10 μM Dexamethasone, read-out: Inhibition of GR binding, IC50. The procedure:
Human Glucocorticoid Receptor (GR) Assay The assay is based on a commercial kit from Panvera/Invitrogen (Part number P2893). The assay technology is fluorescence polarization. The kit utilises recombinant human GR (Panvera, Part number P2812), a Fluoromone™ labelled tracer (GS Red, Panvera, Part number P2894) and a Stabilizing Peptide 10× (Panvera, Part number P2815). The GR and Stabilizing Peptide reagents are stored at −70° C. while the GS Red is stored at −20° C. Also included in the kit are 1M DTT (Panvera, Part number P2325, stored at −20° C.) and GR Screening buffer 10× (Panvera, Part number P2814, stored at −70° C. initially but once thawed stored at room temperature). Avoid repeated freeze/thaws for all reagents. The GR Screening buffer 10× comprises 100 mM potassium phosphate, 200 mM sodium molybdate, 1 mM EDTA and 20% DMSO. Test compounds (1 μL) and controls (1 μL) in 100% DMSO were added to black polystyrene 384-well plates (Greiner low volume black flat-bottom, part number 784076). 0% control was 100% DMSO and 100% control was 10 μM Dexamethasone. Background solution (8 μL; assay buffer 10×, Stabilizing Peptide, DTT and ice cold MQ water) was added to the background wells. GS Red solution (7 μL; assay buffer 10×, Stabilizing Peptide, DTT, GS Red and ice cold water) was added to all wells except background wells. GR solution (7 μL; assay buffer 10×, Stabilizing Peptide, DTT, GR and ice cold water) was added to all wells. The plate was sealed and incubated in a dark at room temperature for 2 hours. The plate was read in an Analyst plate reader (LJL Biosystems/Molecular Devices Corporation) or other similar plate reader capable of recording fluorescence polarization (excitation wavelength 530 nm, emission wavelength 590 nm and a dichroic mirror at 561 nm).
For orientation: Fluorescence polarisation rises when a labelled molecule tumbles more slowly, as on binding a larger partner.
As to `CCC[C@H]1O[C@@H]2C[C@H]3[C@@H]4CCC5=Cc6c(cnn6-c6ccc(F)c(CN7CCOCC7)c6)C[C@]5(C)[C@H]4[C@@H](O)C[C@]3(C)[C@]2(C(=O)CO)O1` [Example 2], the IC50 is 8.7 nM.
Regarding `CCC[C@@H]1O[C@@H]2C[C@H]3[C@@H]4CCC5=Cc6c(cnn6-c6ccc(F)c(CN7CCOCC7)c6)C[C@]5(C)[C@H]4[C@@H](O)C[C@]3(C)[C@]2(C(=O)CO)O1` [Example 1, 1-[(4aR,4bS,5S,6aS,6bS,8R,9aR,10aS,10bS)-1-[4-fluoro-3-(morpholin-4-ylmethyl)phenyl]-5-hydroxy-4a,6a-dimethyl-8-propyl-4,4a,4b,5,6,6a,9a,10,10a,10b,11,12-dodecahydro[1,3]-dioxolo[3′,4′]cyclopenta-[1′,2′:5,6]naphtho[1,2-f]indazol-6b(1H)-yl]-2-hydroxyethanone trifluoroacetic acid], the IC50 came out at 8 nM.
For `CCC[C@H]1O[C@@H]2C[C@H]3[C@@H]4CCC5=Cc6c(cnn6-c6ccc(F)c(CN7CCSCC7)c6)C[C@]5(C)[C@H]4[C@@H](O)C[C@]3(C)[C@]2(C(=O)CO)O1` [Example 8, 1-[(4aR,4bS,5S,6aS,6bS, 8S,9aR,10aS,10bS)-1-[4-fluoro-3-(thiomorpholin-4-ylmethyl)phenyl]-5-hydroxy-4a,6a-dimethyl-8-propyl-4,4a,4b,5,6,6a,9a,10, 10a,10b,11,12-dodecahydro[1,3]dioxolo [3′,4′]cyclopenta [1′,2′:5,6]naphtho[1,2-f]indazol-6b(1H)-yl]-2-hydroxyethanone trifluoroacetic acid], the IC50 was 16 nM.
As for `CCC[C@@H]1O[C@@H]2C[C@H]3[C@@H]4CCC5=Cc6c(cnn6-c6ccc(F)c(CN7CCC(CO)CC7)c6)C[C@]5(C)[C@H]4[C@@H](O)C[C@]3(C)[C@]2(C(=O)CO)O1` [Example 13, 1-[(4aR,4bS,5S,6aS,6bS, 8R,9aR,10aS,10bS)-1-(4-fluoro-3-{[4-(hydroxymethyl)piperidin-1-yl]methyl}phenyl)-5-hydroxy-4a,6a-dimethyl-8-propyl-4,4a,4b,5,6,6a,9a,10, 10a,10b,11,12-dodecahydro[1,3]dioxolo [3′,4′]cyclopenta [1′,2′:5,6]naphtho[1,2-f]indazol-6b(1H)-yl]-2-hydroxyethanone trifluoroacetic acid], the figure is 32 nM.
As for `CCC[C@H]1O[C@@H]2C[C@H]3[C@@H]4CCC5=Cc6c(cnn6-c6ccc(F)c(CN7CCC(CO)CC7)c6)C[C@]5(C)[C@H]4[C@@H](O)C[C@]3(C)[C@]2(C(=O)CO)O1` [Example 14, 1-[(4aR,4bS,5S,6aS,6bS, 8S,9aR,10aS,10bS)-1-(4-fluoro-3-{[4-(hydroxymethyl)-piperidin-1-yl]methyl}phenyl)-5-hydroxy-4a,6a-dimethyl-8-propyl-4,4a,4b,5,6,6a,9a,10, 10a,10b,11,12-dodecahydro[1,3]dioxolo [3′,4′]cyclopenta [1′,2′:5,6]naphtho[1,2-f]indazol-6b(1H)-yl]-2-hydroxyethanone trifluoroacetic acid], the figure is 47 nM.
Next, `CCC[C@H]1O[C@@H]2C[C@H]3[C@@H]4CCC5=Cc6c(cnn6-c6ccc(F)c(CN7CCC(O)CC7)c6)C[C@]5(C)[C@H]4[C@@H](O)C[C@]3(C)[C@]2(C(=O)CO)O1` [Example 10, 1-[(4aR,4bS,5S,6aS,6bS, 8S,9aR,10aS,10bS)-1-{4-fluoro-3-[(4-hydroxypiperidin-1-yl)methyl]phenyl}-5-hydroxy-4a,6a-dimethyl-8-propyl-4,4a,4b,5,6,6a,9a,10, 10a,10b,11,12-dodecahydro[1,3]dioxolo [3′,4′]cyclopenta [1′,2′:5,6]naphtho[1,2-f]indazol-6b(1H)-yl]-2-hydroxyethanone trifluoroacetic acid]: 67 nM.
In the case of `CCC[C@H]1O[C@@H]2C[C@H]3[C@@H]4CCC5=Cc6c(cnn6-c6ccc(F)cc6)C[C@]5(C)[C@H]4[C@@H](O)C[C@]3(C)[C@]2(C(=O)CO)O1` [Example 19, 1-[(4aR,4bS,5S,6aS,6bS,8S,9aR,10aS,10bS)-1-(4-Fluorophenyl)-5-hydroxy-4a,6a-dimethyl-8-propyl-4,4a,4b,5,6,6a,9a,10,10a,10b,11,12-dodecahydro[1,3]dioxolo-[3′,4′]cyclopenta[1′,2′:5,6]naphtho[1,2-f]indazol-6b(1H)-yl]-2-hydroxyethanone], the IC50 amounted to 2.7 nM.
As to `CC1(C)O[C@@H]2C[C@H]3[C@@H]4CCC5=Cc6c(cnn6-c6ccc(F)cc6)C[C@]5(C)[C@H]4[C@@H](O)C[C@]3(C)[C@]2(C(=O)CO)O1` [Example 20, 1-[(4aR,4bS,5S,6aS,6bS,9aR,10aS,10bS)-1-(4-Fluorophenyl)-5-hydroxy-4a,6a,8,8-tetramethyl-4,4a,4b,5,6,6a,9a,10,10a,10b,11,12-dodecahydro[1,3]dioxolo-[3′,4′]cyclopenta[1′,2′:5,6]naphtho[1,2-f]indazol-6b(1H)-yl]-2-hydroxyethanone], the IC50 was 1.3 nM.
Consider `CC1(C)O[C@@H]2C[C@H]3[C@@H]4CCC5=Cc6c(cnn6-c6ccc(F)c(CO)c6)C[C@]5(C)[C@H]4[C@@H](O)C[C@]3(C)[C@]2(C(=O)CO)O1` [Example 21, 1-[(4aR,4bS,5S,6aS,6bS,9aR,10aS,10bS)-1-[4-Fluoro-3-(hydroxymethyl)phenyl]-5-hydroxy-4a,6a,8,8-tetramethyl-4,4a,4b,5,6,6a,9a,10,10a,10b,11,12-dodecahydro[1,3]dioxolo[3′,4′]cyclopenta[1′,2′:5,6]naphtho[1,2-f]indazol-6b(1H)-yl]-2-hydroxyethanone], for which the IC50 worked out at 5.5 nM.
As for `CCC[C@@H]1O[C@@H]2C[C@H]3[C@@H]4CCC5=Cc6c(cnn6-c6ccc(F)c(CN7CCN(C)CC7)c6)C[C@]5(C)[C@H]4[C@@H](O)C[C@]3(C)[C@]2(C(=O)CO)O1` [Example 4, 1-[(4aR,4bS,5S,6aS,6bS, 8R,9aR,10aS,10bS)-1-{4-fluoro-3-[(4-methylpiperazin-1-yl)methyl]phenyl}-5-hydroxy-4a,6a-dimethyl-8-propyl-4,4a,4b,5,6,6a,9a,10, 10a,10b,11,12-dodecahydro[1,3]dioxolo [3′,4′]cyclopenta [1′,2′:5,6]naphtho[1,2-f]indazol-6b(1H)-yl]-2-hydroxyethanone trifluoroacetic acid], the figure is 21 nM; as for `CCC[C@@H]1O[C@@H]2C[C@H]3[C@@H]4CCC5=Cc6c(cnn6-c6ccc(F)c(CN7CCCC7)c6)C[C@]5(C)[C@H]4[C@@H](O)C[C@]3(C)[C@]2(C(=O)CO)O1` [Example 3, 1-[(4aR,4bS,5S,6aS,6bS, 8R,9aR,10aS,10bS)-1-[4-fluoro-3-(pyrrolidin-1-ylmethyl)phenyl]-5-hydroxy-4a,6a-dimethyl-8-propyl-4,4a,4b,5,6,6a,9a,10, 10a,10b,11,12-dodecahydro[1,3]dioxolo [3′,4′]cyclopenta [1′,2′:5,6]naphtho[1,2-f]indazol-6b(1H)-yl]-2-hydroxyethanone], 37 nM.
As to `CC1(C)O[C@@H]2C[C@H]3[C@@H]4C=CC5=Cc6c(cnn6-c6ccc(F)cc6)C[C@]5(C)[C@H]4[C@@H](O)C[C@]3(C)[C@]2(C(=O)CO)O1` [Example 24, 1-[(4aR,4bS,5S,6aS,6bS,9aR,10aS,10bS)-1-(4-Fluorophenyl)-5-hydroxy-4a,6a,8,8-tetramethyl-4,4a,4b,5,6,6a,9a,10,10a,10b-decahydro[1,3]dioxolo[3′,4′]cyclopenta-[1′,2′:5,6]naphtho[1,2-f]indazol-6b(1H)-yl]-2-hydroxyethanone], the IC50 turned out to be 3.8 nM.
